According to publication PMC12862769 (ACS infectious diseases, 2025):
Converted amounts (≈) assume the structure as drawn. Like-named read-outs stand apart in the source and are kept apart here.

What was measured:
E. faecalis HM-201 = test: MIC assay; type: cell-based
E. faecalis HM-934 = test: MIC assay; type: cell-based
E. faecalis NR-31970 = test: MIC assay; type: cell-based
E. faecium ATCC 700221 = test: MIC assay; type: cell-based
E. faecium HM-952 = test: MIC assay; type: cell-based
E. faecium HM-965 = test: MIC assay; type: cell-based
E. faecium HM-970 = test: MIC assay; type: cell-based
E. faecium NR-31909 [1] = test: MIC assay; type: cell-based
E. faecium NR-31912 = test: MIC assay; type: cell-based
E. faecium NR-31933 = test: MIC assay; type: cell-based
E. faecium NR-31937 = test: MIC assay; type: cell-based
E. faecium NR-31954 = test: MIC assay; type: cell-based
E. faecium NR-32053 = test: MIC assay; type: cell-based
E. faecium NR-32094 = test: MIC assay; type: cell-based
E. avium ATCC 14025 = test: MIC assay; type: cell-based
[2] = tested on: E. casseliflavus ATCC 700327; test: MIC assay; type: cell-based
E. durans ATCC 11576 = test: MIC assay; type: cell-based
E. gallinarum ATCC 49373 = test: MIC assay; type: cell-based
E. hirae ATCC 10541 = test: MIC assay; type: cell-based
E. raffinosus ATCC 49464 = test: MIC assay; type: cell-based
[3] = tested on: E. saccharolyticus ATCC 43076; test: MIC assay; type: cell-based
[4] = tested on: Listeria Monocytogenes ATCC 19111; test: MIC assay; type: cell-based; settings: encodes only α-CA, no MpsAB homologs
[5] = tested on: Staphylococcus aureus USA300; test: MIC assay; type: cell-based; settings: no CAs, expresses MpsAB homologs
[6] = tested on: Staphylococcus epidermidis NRS101; test: MIC assay; type: cell-based; settings: no CAs, expresses MpsAB homologs
[7] = tested on: Bacillus subtilis ATCC11774; test: MIC assay; type: cell-based; settings: encodes both MpsAB and CAs
[8] = tested on: E. faecalis and E. faecium strains; test: MIC assay, panel of 25 E. faecalis and E. faecium strains; type: cell-based; settings: ambient air
[9] = tested on: all tested Enterococcus strains; test: MIC assay, all tested Enterococcus strains; type: cell-based
E. faecium α-CA = test: in vitro inhibition of bacterial α-CA; type: biochemical
E. faecium NR-31909 [10] = test: E. faecium septicemic peritonitis mouse model; type: in vivo, BALB/c mice
E. faecalis HM-334 = settings: cited from earlier work
E. faecalis HM-335 = settings: cited from earlier work
[11] = tested on: α-Carbonic anhydrase (Q3XYE8); settings: lysates pre-incubated with 100 μM free inhibitor, compared to Biotin-AZM; α-CA
E. faecalis NR-31971 = settings: cited from earlier work
E. faecalis NR-31972 = settings: cited from earlier work
E. faecium HM-968 = settings: cited from earlier work
E. faecium NR-28978 = settings: cited from earlier work
E. faecium NR-31903 = settings: cited from earlier work
E. faecium NR-31914 = settings: cited from earlier work
E. faecium NR-31916 = settings: cited from earlier work
E. faecium NR-32052 = settings: cited from earlier work
E. faecium NR-32065 = settings: cited from earlier work

**Q.** Which results are given for `CC(=O)Nc1nnc(S(N)(=O)=O)s1` [AZM, acetazolamide]?
**A.** MIC (E. faecalis HM-201; 5% CO2 atmosphere at 37° C): > 288 µM; MIC (E. faecalis HM-201; ambient air at 37° C): 18.0 µM (≈ 4 µg/mL); MIC (E. faecalis HM-934; 5% CO2 atmosphere at 37° C): > 288 µM; MIC (E. faecalis HM-934; ambient air at 37° C): 9.01 µM (≈ 2 µg/mL); MIC (E. faecalis NR-31970; 5% CO2 atmosphere at 37° C): > 288 µM; MIC (E. faecalis NR-31970; ambient air at 37° C): 18.0 µM (≈ 4 µg/mL); MIC (E. faecium ATCC 700221; 5% CO2 atmosphere at 37° C): > 288 µM; MIC (E. faecium ATCC 700221; ambient air at 37° C): 9.01 µM (≈ 2 µg/mL); MIC (E. faecium HM-952; 5% CO2 atmosphere at 37° C): > 288 µM; MIC (E. faecium HM-952; ambient air at 37° C): 9.01 µM (≈ 2 µg/mL); MIC (E. faecium HM-965; 5% CO2 atmosphere at 37° C): > 288 µM; MIC (E. faecium HM-965; ambient air at 37° C): 4.50 µM (≈ 1 µg/mL); MIC (E. faecium HM-970; 5% CO2 atmosphere at 37° C): > 288 µM; MIC (E. faecium HM-970; ambient air at 37° C): 9.01 µM (≈ 2 µg/mL); MIC (E. faecium NR-31909 [1]; 5% CO2 atmosphere at 37° C): > 288 µM; MIC (E. faecium NR-31909 [1]; ambient air at 37° C): 9.01 µM (≈ 2 µg/mL); MIC (E. faecium NR-31912; 5% CO2 atmosphere at 37° C): > 288 µM; MIC (E. faecium NR-31912; ambient air at 37° C): 9.01 µM (≈ 2 µg/mL); MIC (E. faecium NR-31933; 5% CO2 atmosphere at 37° C): > 288 µM; MIC (E. faecium NR-31933; ambient air at 37° C): 9.01 µM (≈ 2 µg/mL); MIC (E. faecium NR-31937; 5% CO2 atmosphere at 37° C): > 288 µM; MIC (E. faecium NR-31937; ambient air at 37° C): 9.01 µM (≈ 2 µg/mL); MIC (E. faecium NR-31954; 5% CO2 atmosphere at 37° C): > 288 µM; MIC (E. faecium NR-31954; ambient air at 37° C): 36.0 µM (≈ 8 µg/mL); MIC (E. faecium NR-32053; 5% CO2 atmosphere at 37° C): > 288 µM; MIC (E. faecium NR-32053; ambient air at 37° C): 4.50 µM (≈ 1 µg/mL); MIC (E. faecium NR-32094; 5% CO2 atmosphere at 37° C): > 288 µM; MIC (E. faecium NR-32094; ambient air at 37° C): 9.01 µM (≈ 2 µg/mL); MIC (E. avium ATCC 14025; 5% CO2 atmosphere at 37° C): > 288 µM; MIC (E. avium ATCC 14025; ambient air at 37° C): 72.0 µM (≈ 16 µg/mL); MIC ([2]; 5% CO2 atmosphere at 37° C): > 288 µM; MIC ([2]; ambient air at 37° C): 72.0 µM (≈ 16 µg/mL); MIC (E. durans ATCC 11576; 5% CO2 atmosphere at 37° C): > 288 µM; MIC (E. durans ATCC 11576; ambient air at 37° C): 2.25 µM (≈ 0.5 µg/mL); MIC (E. gallinarum ATCC 49373; 5% CO2 atmosphere at 37° C): > 288 µM; MIC (E. gallinarum ATCC 49373; ambient air at 37° C): 36.0 µM (≈ 8 µg/mL); MIC (E. hirae ATCC 10541; 5% CO2 atmosphere at 37° C): > 288 µM; MIC (E. hirae ATCC 10541; ambient air at 37° C): 36.0 µM (≈ 8 µg/mL); MIC (E. raffinosus ATCC 49464; 5% CO2 atmosphere at 37° C): > 288 µM; MIC (E. raffinosus ATCC 49464; ambient air at 37° C): 36.0 µM (≈ 8 µg/mL); MIC ([3]; 5% CO2 atmosphere at 37° C): > 288 µM; MIC ([3]; ambient air at 37° C): 4.50 µM (≈ 1 µg/mL); MIC ([4]; 5% CO2 atmosphere at 37° C): >500 µM; MIC ([4]; ambient air at 37° C): 72 µM (≈ 16 µg/mL); MIC ([5]; 5% CO2 atmosphere at 37° C): >500 µM; MIC ([5]; ambient air at 37° C): >500 µM; MIC ([6]; 5% CO2 atmosphere at 37° C): >500 µM; MIC ([6]; ambient air at 37° C): >500 µM; MIC ([7]; 5% CO2 atmosphere at 37° C): >500 µM; MIC ([7]; ambient air at 37° C): >500 µM; Ef MIC50 ([8]; inhibited 50% of the tested E. faecalis and E. faecium strains): 9.01 µM; Ef MIC90 ([8]; inhibited 90% of the tested E. faecalis and E. faecium strains): 18 µM; MICs in the presence of CO2 ([9]; all Enterococcus species, 5% CO2): > 288 µM; All Enterococci spp. MIC50 ([9]; inhibited 50% of all tested Enterococcus strains, ambient air): 9.01 µM; All Enterococci spp. MIC90 ([9]; inhibited 90% of all tested Enterococcus strains, ambient air): 36.0 µM; potency against α-CA over γ-CA based on Ki (E. faecium α-CA): > 5 fold; survival (mice rescued) (E. faecium NR-31909 [10]; 20 mg/kg PO once-daily for three days, n = 6/group): 66.7%; reduction of VRE bioburden compared to vehicle (E. faecium NR-31909 [10]; kidney, liver and spleen, each tissue, 20 mg/kg PO QD three days): at least 2 Log10 CFU/mL; reduction of VRE bioburden (E. faecium NR-31909 [10]; kidney, liver and spleen, three-day treatment): > 99%; MIC (E. faecalis HM-334; 5% CO2 atmosphere at 37° C): > 288 µM; MIC (E. faecalis HM-334; ambient air at 37° C): 9.01 µM (≈ 2 µg/mL); MIC (E. faecalis HM-335; 5% CO2 atmosphere at 37° C): > 288 µM; MIC (E. faecalis HM-335; ambient air at 37° C): 9.01 µM (≈ 2 µg/mL); Log2 (FC) [11]: −7.88; MIC (E. faecalis NR-31971; 5% CO2 atmosphere at 37° C): > 288 µM; MIC (E. faecalis NR-31971; ambient air at 37° C): 9.01 µM (≈ 2 µg/mL); MIC (E. faecalis NR-31972; 5% CO2 atmosphere at 37° C): > 288 µM; MIC (E. faecalis NR-31972; ambient air at 37° C): 9.01 µM (≈ 2 µg/mL); MIC (E. faecium HM-968; 5% CO2 atmosphere at 37° C): > 288 µM; MIC (E. faecium HM-968; ambient air at 37° C): 9.01 µM (≈ 2 µg/mL); MIC (E. faecium NR-28978; 5% CO2 atmosphere at 37° C): > 288 µM; MIC (E. faecium NR-28978; ambient air at 37° C): 9.01 µM (≈ 2 µg/mL); MIC (E. faecium NR-31903; 5% CO2 atmosphere at 37° C): > 288 µM; MIC (E. faecium NR-31903; ambient air at 37° C): 9.01 µM (≈ 2 µg/mL); MIC (E. faecium NR-31914; 5% CO2 atmosphere at 37° C): > 288 µM; MIC (E. faecium NR-31914; ambient air at 37° C): 9.01 µM (≈ 2 µg/mL); MIC (E. faecium NR-31916; 5% CO2 atmosphere at 37° C): > 288 µM; MIC (E. faecium NR-31916; ambient air at 37° C): 9.01 µM (≈ 2 µg/mL); MIC (E. faecium NR-32052; 5% CO2 atmosphere at 37° C): > 288 µM; MIC (E. faecium NR-32052; ambient air at 37° C): 9.01 µM (≈ 2 µg/mL); MIC (E. faecium NR-32065; 5% CO2 atmosphere at 37° C): > 288 µM; MIC (E. faecium NR-32065; ambient air at 37° C): 4.50 µM (≈ 1 µg/mL)
